# From patent US20230126893A1, “[(1,4,5-TRISUBSTITUTED-1H-PYRAZOL-3-YL)SULFANYL]ACETIC ACID DERIVATIVES, SALTS THEREOF, AND USE THEREOF AS ACTIVE HERBICIDAL INGREDIENTS” (BAYER AKTIENGESELLSCHAFT, priority 2020, published 2023)
# Tested on: Veronica persica
# Experiment: Pre-emergence herbicidal effect against VERPE
# Format: in vivo
# Settings: 1280 g/ha, visual score after 3 weeks, 100% = plants have died, 0% = like control plants
# Excerpt: (§1) 1. Pre-emergence herbicidal effect and crop plant compatibility Seeds of monocotyledonous and dicotyledonous weed plants and crop plants are laid out in sandy loam soil in wood-fibre pots and covered with soil. The compounds of the invention, formulated in the form of wettable powders (WP) or as emulsion concentrates (EC), are then applied to the surface of the covering soil as aqueous suspension or emulsion at a water application rate equating to 600 to 800 L/ha with addition of 0.2% wetting agent. After the treatment, the pots are placed in a greenhouse and kept under good growth conditions for the trial plants. The damage to the test plants is scored visually after a test period of 3 weeks by comparison with untreated controls (herbicidal activity in percent (%): 100% activity=the plants have died, 0% activity=like control plants). [table]
row,SMILES,Pre-emergence action against VERPE
1,CCOC(=O)CSc1nn(-c2ccc(F)cc2F)c(-c2ccc(F)c(F)c2)c1Br [Example I-027],90%
2,CCOC(=O)CSc1nn(-c2ccccc2F)c(-c2ccc(F)c(F)c2)c1C(F)(F)F [Example I-018],100%

# Tested on: Poa annua
# Experiment: Pre-emergence herbicidal effect against POAAN
# Format: in vivo
# Settings: 1280 g/ha, visual score after 3 weeks, 100% = plants have died, 0% = like control plants
# Excerpt: as §1
row,SMILES,Pre-emergence action against POAAN
1,CCOC(=O)CSc1nn(-c2ccc(F)cc2F)c(-c2ccc(F)c(F)c2)c1Br [Example I-027],100%
2,CCOC(=O)CSc1nn(-c2ccccc2F)c(-c2ccc(F)c(F)c2)c1C(F)(F)F [Example I-018],100%
3,Cc1cnsc1-c1c(Br)c(SCC(=O)O)nn1-c1ccccc1F [Example V-002],100%

# Tested on: Veronica persica
# Experiment: Post-emergence herbicidal effect against VERPE
# Format: in vivo
# Settings: 1280 g/ha, visual assessment about 3 weeks after treatment, 100% = plants have died, 0% = like control plants
# Experimental: (§2) [table] 2. Post-emergence herbicidal effect and crop plant compatibility Seeds of monocotyledonous and dicotyledonous weed and crop plants are laid out in sandy loam soil in wood-fibre pots, covered with soil and cultivated in a greenhouse under good growth conditions. 2 to 3 weeks after sowing, the test plants are treated at the one-leaf stage. The compounds of the invention, formulated in the form of wettable powders (WP) or as emulsion concentrates (EC), are then sprayed onto the green parts of the plants as aqueous suspension or emulsion at a water application rate equating to 600 to 800 l/ha with addition of 0.2% wetting agent. After the test plants have been left to stand in the greenhouse under optimal growth conditions for about 3 weeks, the action of the preparations is assessed visually in comparison to untreated controls (herbicidal action in percent (%): 100% activity=the plants have died, 0% activity=like control plants).
row,SMILES,Post-emergence action against VERPE
1,CCOC(=O)CSc1nn(-c2ccc(F)cc2F)c(-c2ccc(F)c(F)c2)c1Br [Example I-027],100%
2,CCOC(=O)CSc1nn(-c2ccccc2F)c(-c2ccc(F)c(F)c2)c1C(F)(F)F [Example I-018],100%

# Tested on: Lolium rigidum
# Experiment: Pre-emergence herbicidal effect against LOLRI
# Format: in vivo
# Settings: 1280 g/ha, visual score after 3 weeks, 100% = plants have died, 0% = like control plants
# Excerpt: as §1
row,SMILES,Pre-emergence action against LOLRI
1,CCOC(=O)CSc1nn(-c2ccc(F)cc2F)c(-c2ccc(F)c(F)c2)c1Br [Example I-027],90%
2,CCOC(=O)CSc1nn(-c2ccccc2F)c(-c2ccc(F)c(F)c2)c1C(F)(F)F [Example I-018],100%

# Tested on: Amaranthus retroflexus
# Experiment: Pre-emergence herbicidal effect against AMARE
# Format: in vivo
# Settings: 1280 g/ha, visual score after 3 weeks, 100% = plants have died, 0% = like control plants
# Excerpt: as §1
row,SMILES,Pre-emergence action against AMARE
1,Cc1cnsc1-c1c(Br)c(SCC(=O)O)nn1-c1ccccc1F [Example V-002],100%

# Tested on: Digitaria sanguinalis
# Experiment: Post-emergence herbicidal effect against DIGSA
# Format: in vivo
# Settings: 1280 g/ha, visual score after about 3 weeks, 100% = plants have died, 0% = like control plants
# Experimental: as §2
row,SMILES,Post-emergence action against DIGSA
1,CCOC(=O)CSc1nn(-c2ccc(F)cc2F)c(-c2ccc(F)c(F)c2)c1Br [Example I-027],100%
2,CCOC(=O)CSc1nn(-c2ccccc2F)c(-c2ccc(F)c(F)c2)c1C(F)(F)F [Example I-018],90%

# Tested on: Abutylon threophrasti
# Experiment: Post-emergence herbicidal effect against ABUTH
# Format: in vivo
# Settings: 1280 g/ha, visual assessment about 3 weeks after treatment, 100% = plants have died, 0% = like control plants
# Experimental: as §2
row,SMILES,Post-emergence action against ABUTH
1,CCOC(=O)CSc1nn(-c2ccccc2F)c(-c2ccc(F)c(F)c2)c1C(F)(F)F [Example I-018],90%

# Tested on: Digitaria sanguinalis
# Experiment: Pre-emergence herbicidal effect against DIGSA
# Format: in vivo
# Settings: 1280 g/ha, visual score after 3 weeks, 100% = plants have died, 0% = like control plants
# Excerpt: as §1
row,SMILES,Pre-emergence action against DIGSA
1,CCOC(=O)CSc1nn(-c2ccc(F)cc2F)c(-c2ccc(F)c(F)c2)c1Br [Example I-027],100%
2,CCOC(=O)CSc1nn(-c2ccccc2F)c(-c2ccc(F)c(F)c2)c1C(F)(F)F [Example I-018],100%

# Tested on: Echinochloa crus-galli
# Experiment: Pre-emergence herbicidal effect against ECHCG
# Format: in vivo
# Settings: 1280 g/ha, visual score after 3 weeks, 100% = plants have died, 0% = like control plants
# Excerpt: as §1
row,SMILES,Pre-emergence action against ECHCG
1,CCOC(=O)CSc1nn(-c2ccccc2F)c(-c2ccc(F)c(F)c2)c1C(F)(F)F [Example I-018],100%

# Tested on: Setaria viridis
# Experiment: Post-emergence herbicidal effect against SETVI
# Format: in vivo
# Settings: 1280 g/ha, visual assessment about 3 weeks after treatment, 100% = plants have died, 0% = like control plants
# Experimental: as §2
row,SMILES,Post-emergence action against SETVI
1,CCOC(=O)CSc1nn(-c2ccccc2F)c(-c2ccc(F)c(F)c2)c1C(F)(F)F [Example I-018],100%

# Tested on: Alopecurus myosuroides
# Experiment: Post-emergence herbicidal effect against ALOMY
# Format: in vivo
# Settings: 1280 g/ha, visual score after about 3 weeks, 100% = plants have died, 0% = like control plants
# Experimental: as §2
row,SMILES,Post-emergence action against ALOMY
1,CCOC(=O)CSc1nn(-c2ccc(F)cc2F)c(-c2ccc(F)c(F)c2)c1Br [Example I-027],100%

# Tested on: Poa annua
# Experiment: Post-emergence herbicidal effect against POAAN
# Format: in vivo
# Settings: 1280 g/ha, visual assessment about 3 weeks after treatment, 100% = plants have died, 0% = like control plants
# Experimental: as §2
row,SMILES,Post-emergence action against POAAN
1,CCOC(=O)CSc1nn(-c2ccc(F)cc2F)c(-c2ccc(F)c(F)c2)c1Br [Example I-027],90%
2,CCOC(=O)CSc1nn(-c2ccccc2F)c(-c2ccc(F)c(F)c2)c1C(F)(F)F [Example I-018],100%

# Tested on: Tripleurospermum inodorum
# Experiment: Pre-emergence herbicidal effect against MATIN
# Format: in vivo
# Settings: 1280 g/ha, visual score after 3 weeks, 100% = plants have died, 0% = like control plants
# Excerpt: as §1
row,SMILES,Pre-emergence action against MATIN
1,CCOC(=O)CSc1nn(-c2ccc(F)cc2F)c(-c2ccc(F)c(F)c2)c1Br [Example I-027],100%
2,CCOC(=O)CSc1nn(-c2ccccc2F)c(-c2ccc(F)c(F)c2)c1C(F)(F)F [Example I-018],100%
3,Cc1cnsc1-c1c(Br)c(SCC(=O)O)nn1-c1ccccc1F [Example V-002],100%

# Tested on: Stellaria media
# Experiment: Pre-emergence herbicidal effect against STEME
# Format: in vivo
# Settings: 1280 g/ha, visual score after 3 weeks, 100% = plants have died, 0% = like control plants
# Excerpt: as §1
row,SMILES,Pre-emergence action against STEME
1,CCOC(=O)CSc1nn(-c2ccc(F)cc2F)c(-c2ccc(F)c(F)c2)c1Br [Example I-027],100%
2,CCOC(=O)CSc1nn(-c2ccccc2F)c(-c2ccc(F)c(F)c2)c1C(F)(F)F [Example I-018],100%

# Tested on: Tripleurospermum inodorum
# Experiment: Post-emergence herbicidal effect against MATIN
# Format: in vivo
# Settings: 1280 g/ha, visual assessment about 3 weeks after treatment, 100% = plants have died, 0% = like control plants
# Experimental: as §2
row,SMILES,Post-emergence action against MATIN
1,CCOC(=O)CSc1nn(-c2ccccc2F)c(-c2ccc(F)c(F)c2)c1C(F)(F)F [Example I-018],90%

# Tested on: Bassia scoparia
# Experiment: Post-emergence herbicidal effect against KCHSC
# Format: in vivo
# Settings: 1280 g/ha, visual assessment about 3 weeks after treatment, 100% = plants have died, 0% = like control plants
# Experimental: as §2
row,SMILES,Post-emergence action against KCHSC
1,CCOC(=O)CSc1nn(-c2ccc(F)cc2F)c(-c2ccc(F)c(F)c2)c1Br [Example I-027],90%

# Tested on: Setaria viridis
# Experiment: Pre-emergence herbicidal effect against SETVI
# Format: in vivo
# Settings: 1280 g/ha, visual score after 3 weeks, 100% = plants have died, 0% = like control plants
# Excerpt: as §1
row,SMILES,Pre-emergence action against SETVI
1,CCOC(=O)CSc1nn(-c2ccc(F)cc2F)c(-c2ccc(F)c(F)c2)c1Br [Example I-027],100%
2,CCOC(=O)CSc1nn(-c2ccccc2F)c(-c2ccc(F)c(F)c2)c1C(F)(F)F [Example I-018],100%
3,Cc1cnsc1-c1c(Br)c(SCC(=O)O)nn1-c1ccccc1F [Example V-002],100%

# Tested on: Stellaria media
# Experiment: Post-emergence herbicidal effect against STEME
# Format: in vivo
# Settings: 1280 g/ha, visual assessment about 3 weeks after treatment, 100% = plants have died, 0% = like control plants
# Experimental: as §2
row,SMILES,Post-emergence action against STEME
1,CCOC(=O)CSc1nn(-c2ccc(F)cc2F)c(-c2ccc(F)c(F)c2)c1Br [Example I-027],90%

# Tested on: Echinochloa crus-galli
# Experiment: Post-emergence herbicidal effect against ECHCG
# Format: in vivo
# Settings: 1280 g/ha, visual score after about 3 weeks, 100% = plants have died, 0% = like control plants
# Experimental: as §2
row,SMILES,Post-emergence action against ECHCG
1,CCOC(=O)CSc1nn(-c2ccccc2F)c(-c2ccc(F)c(F)c2)c1C(F)(F)F [Example I-018],90%

# Tested on: Alopecurus myosuroides
# Experiment: Pre-emergence herbicidal effect against ALOMY
# Format: in vivo
# Settings: 1280 g/ha, visual score after 3 weeks, 100% = plants have died, 0% = like control plants
# Excerpt: as §1
row,SMILES,Pre-emergence action against ALOMY
1,CCOC(=O)CSc1nn(-c2ccccc2F)c(-c2ccc(F)c(F)c2)c1C(F)(F)F [Example I-018],90%
